Source: US20260151375A1, “CDK2 INHIBITORS AND METHODS OF USING THE SAME” (Cedilla Therapeutics, Inc., priority 2022, published 2026)

Assays:
CDK2/Cyclin E1 = target: T1, CDK2/Cyclin E1 (Homo sapiens, UniProt P24941); test: Caliper Assay (LabChip EZ Reader mobility shift assay), inhibition of CDK2/Cyclin E1 activity; assay type: biochemical; settings: 2.5 nM CDK2/Cyclin E1(14-475), 100 μM ATP, 30 min preincubation; read-out: Caliper Assay (CDK2/CCNE1): IC50
T1 construct: purchased 14-475
Protocol: Inhibition of CDK2/Cyclin E1 activity in the presence of compounds of the present disclosure was evaluated using a Caliper LabChip® EZ Reader mobility shift assay. In the assay, activated CDK2/Cyclin E1 catalyzes the phosphorylation of a fluorescently tagged peptide 5-FAM-QSPKKG-CONH2 (PerkinElmer, FL Peptide 18) which induces a difference in capillary electrophoresis mobility. The peptide substrate and product were measured, and the conversion ratio was used to determine the inhibition (as % activity and IC50 values) of CDK2/Cyclin E1. Reactions contained 50 mM HEPES pH 7.5, 10 mM MgCl2, 1 mM EDTA, 2 mM DTT, 0.01% Brij35, 0.5 mg/mL BSA, 0.1% DMSO, 2.5 nM CDK2/Cyclin E1(14-475), 100 μM ATP, and 1.5 μM fluorescent peptide substrate.
Dose titrations of inhibitors in 100% DMSO were combined with 3.25 nM CDK2/Cyclin E1(14-475) and 130 μM of ATP in reaction buffer. The mixtures were incubated for 30 minutes before the addition of fluorescent peptide substrate to initiate the kinase reaction. The final conditions were 2.5 nM CDK2/Cyclin E1(14-475), 100 μM ATP, and 1.5 μM fluorescent peptide. The reactions were stopped after 100 minutes with the addition of EDTA (6 mM final EDTA concentration). The stopped reactions were analyzed on a Caliper LabChip© EZ Reader II. The conversion ratios were normalized to yield % activity, plotted against compound concentration, and fit to a four-parameter equation to determine the IC50 for each compound.

Kuramochi cells = test: IncuCyte Kuramochi Assay (cell proliferation); assay type: cell-based; settings: 72 h, Kuramochi cells labeled with mApple-H2B, cell count, read-out: IncuCyte - Kuramochi RB-WT: IC50
Protocol: IncuCyte® assay was used to measure the effect of disclosed compounds on cell proliferation. Fluorescent microscopy images of cells were taken immediately after compound treatment and 72 hours later. Image analysis software was used to obtain cell counts as a function of compound concentration. Kuramochi cells labeled with mApple-H2B were seeded on 384-well assay-ready plates. Plates were placed in an IncuCyte® (Sartorius) and scanned at 0 and 72 hours. IncuCyte® software was used to count the number of fluorescent nuclei in each well. The fold change in cell count from 0 to 72 hours in wells treated with increasing compounds concentrations (10 pts, ½ log dilution, 20 μM top concentration) was normalized to DMSO control wells. The normalized cell counts were fit with dose response curves and a […] was calculated.

Row | SMILES | IC50 (CDK2/Cyclin E1) | IC50 (Kuramochi cells)
1 | CC1(C)C[C@@H]1C(=O)N1CC2(CN(C(=O)c3cncs3)CC2c2nnc(Cc3ccc4c(c3)CCCO4)o2)C1 (some centres unmarked) [I-71] | 1 to 10 µM | > 10 µM
2 | CC1(C)C[C@@H]1C(=O)N1CC2(CN(C(=O)c3cncs3)CC2c2nnc(C(F)(F)c3ccc(C#N)cc3)o2)C1 (some centres unmarked) [I-72] | 1 to 10 µM | > 10 µM
3 | CC1(C)C[C@@H]1C(=O)N1CC2(CN(C(=O)c3cncs3)CC2c2nnc(C(F)(F)c3ccc(F)c(F)c3)o2)C1 (some centres unmarked) [I-76] | 0.1 to 1 µM | > 10 µM
4 | CC(c1cc[nH]n1)c1nc(C2CN(C(=O)c3cncs3)CC23CN(C(=O)[C@H]2CC2(C)C)C3)no1 (stereo partly drawn) [I-77, (8-(5-(1-(1H-pyrazol-3-yl)ethyl)-1,2,4-oxadiazol-3-yl)-2-((S)-2,2-dimethylcyclopropane-1-carbonyl)-2,6-diazaspiro[3.4]octan-6-yl)(thiazol-5-yl)methanone] | 1 to 10 µM | > 10 µM
5 | CC(C)(c1cc[nH]n1)c1nc(C2CN(C(=O)c3cncs3)CC23CN(C(=O)[C@H]2CC2(C)C)C3)no1 (some centres unmarked) [I-79] | 1 to 10 µM | > 10 µM
6 | O=C(c1cncs1)N1CC(c2nnc(Cc3cccc(C4CCOCC4)n3)o2)C2(C1)CN(c1ncco1)C2 (centres unmarked) [I-80] | > 10 µM | > 10 µM
7 | CC(c1nc(C2CN(C(=O)c3cncs3)CC23CN(C(=O)[C@H]2CC2(C)C)C3)no1)n1nc(Cl)cc1Cl (some centres unmarked) [I-81] | 1 to 10 µM | 0.5 to 5 µM
8 | CC(c1nc(C2CN(C(=O)c3cncs3)CC23CN(C(=O)[C@H]2CC2(C)C)C3)no1)n1ccc(C2CCOCC2)n1 (some centres unmarked) [I-82] | 0.1 to 1 µM | > 10 µM
9 | CC1(C)C[C@@H]1C(=O)N1CC2(CN(C(=O)c3cncs3)CC2c2nnc(C3(c4cccc(C5CCOCC5)n4)COC3)o2)C1 (some centres unmarked) [I-97] | 0.1 to 1 µM | > 10 µM
10 | CC1(C)C[C@@H]1C(=O)N1CC2(C1)CN(c1cccc3ncsc13)CC2c1nnc(C(F)(F)c2ccc(Cl)c(Cl)c2)o1 (stereo partly drawn) [I-98, (6-(benzo[d]thiazol-7-yl)-8-(5-((3,4-dichlorophenyl)difluoromethyl)-1,3,4-oxadiazol-2-yl)-2,6-diazaspiro[3.4]octan-2-yl)((S)-2,2-dimethylcyclopropyl)methanone] | > 10 µM | > 10 µM
11 | O=C(c1cncs1)N1CC(c2nnc(Cc3ccc(Cl)c(Cl)c3)o2)C2(C1)CN(c1nccc(C(F)(F)F)n1)C2 (centres unmarked) [I-99] | > 10 µM | > 10 µM
12 | CC1(C)C[C@@H]1C(=O)N1CC2(C1)CN(c1cccc3ncsc13)CC2c1nnc(Cc2ccc(Cl)c(Cl)c2)o1 (stereo partly drawn) [I-101, (6-(benzo[d]thiazol-7-yl)-8-(5-(3,4-dichlorobenzyl)-1,3,4-oxadiazol-2-yl)-2,6-diazaspiro[3.4]octan-2-yl)((S)-2,2-dimethylcyclopropyl)methanone] | > 10 µM | > 10 µM
13 | CC(C)(c1cccc(C2CCOCC2)n1)c1nnc(C2CN(C(=O)c3cncs3)CC23CN(C(=O)[C@H]2CC2(C)C)C3)o1 (some centres unmarked) [I-102] | 0.01 to 0.1 µM | > 10 µM
14 | Cc1nc(C)c(C(=O)N2CC(c3nnc(C(F)(F)c4ccc(Cl)c(Cl)c4)o3)C3(C2)CN(C(=O)[C@H]2CC2(F)F)C3)s1 (stereo partly drawn) [I-103, (8-(5-((3,4-dichlorophenyl)difluoromethyl)-1,3,4-oxadiazol-2-yl)-2-((R)-2,2-difluorocyclopropane-1-carbonyl)-2,6-diazaspiro[3.4]octan-6-yl)(2,4-dimethylthiazol-5-yl)methanone] | > 10 µM | > 10 µM
15 | Cc1nc(C)c(C(=O)N2CC(c3nnc(C(C)c4cccc(C5(C(F)(F)F)CC5)n4)o3)C3(C2)CN(C(=O)[C@H]2CC2(C)C)C3)s1 (some centres unmarked) [I-104] | 0.1 to 1 µM | > 10 µM
16 | CC1(C)C[C@@H]1C(=O)N1CC2(C1)CN(c1ncnc3ncsc13)CC2c1nnc(Cc2cccc(C3CCOCC3)n2)o1 (stereo partly drawn) [I-105, ((S)-2,2-dimethylcyclopropyl)(8-(5-((6-(tetrahydro-2H-pyran-4-yl)pyridin-2-yl)methyl)-1,3,4-oxadiazol-2-yl)-6-(thiazolo[4,5-d]pyrimidin-7-yl)-2,6-diazaspiro[3.4]octan-2-yl)methanone] | > 10 µM | > 10 µM
17 | O=C(c1cncs1)N1CC(c2nc3ccc(Oc4ccccc4)cc3o2)C2(C1)CN(C(=O)[C@H]1CC1(F)F)C2 (stereo partly drawn) [I-144, (2-((R)-2,2-difluorocyclopropane-1-carbonyl)-8-(6-phenoxybenzo[d]oxazol-2-yl)-2,6-diazaspiro[3.4]octan-6-yl)(thiazol-5-yl)methanone] | 1 to 10 µM | > 10 µM

The next lines start with results.

Row | IC50 (CDK2/Cyclin E1) | SMILES | IC50 (Kuramochi cells)
18 | 0.1 to 1 µM | CC1(C)C[C@@H]1C(=O)N1CC2(CN(C(=O)c3cncs3)CC2c2nnc(C(F)(F)c3cccc4ccccc34)o2)C1 (some centres unmarked) [I-73] | > 10 µM
19 | 1 to 10 µM | CC(c1nc(C2CN(C(=O)c3cncs3)CC23CN(C(=O)[C@H]2CC2(C)C)C3)no1)n1ncc2ccccc21 (some centres unmarked) [I-74] | > 10 µM
20 | 0.1 to 1 µM | CC(c1nc(C2CN(C(=O)c3cncs3)CC23CN(C(=O)[C@H]2CC2(C)C)C3)no1)n1cc2ccccc2n1 (some centres unmarked) [I-75] | > 10 µM
21 | 0.1 to 1 µM | CC(c1cccc(C2CCOCC2)n1)c1nnc(C2CN(C(=O)c3cncs3)CC23CN(C(=O)[C@H]2CC2(C)C)C3)o1 (some centres unmarked) [I-78] | > 10 µM
22 | 0.1 to 1 µM | CC1(C)C[C@@H]1C(=O)N1CC2(CN(C(=O)c3cncs3)CC2c2nnc(Cc3cccc(C4CCCCO4)n3)o2)C1 (some centres unmarked) [I-83] | > 10 µM
23 | 1 to 10 µM | CC1(C)C[C@@H]1C(=O)N1CC2(CN(C(=O)c3cnn(Cc4ccccc4)c3)CC2c2noc(COC3CCCC3)n2)C1 (some centres unmarked) [I-84] | > 10 µM
24 | 1 to 10 µM | Cc1cc(C)n(Cc2nc(C3CN(C(=O)c4cnn(Cc5ccccc5)c4)CC34CN(C(=O)[C@H]3CC3(C)C)C4)no2)n1 (some centres unmarked) [I-85] | > 10 µM
25 | > 10 µM | COC(=O)c1coc(C2CN(C(=O)c3cnn(Cc4ccccc4)c3)CC23CN(C(=O)[C@H]2CC2(C)C)C3)n1 (stereo partly drawn) [I-86, methyl 2-(6-(1-benzyl-1H-pyrazole-4-carbonyl)-2-((S)-2,2-dimethylcyclopropane-1-carbonyl)-2,6-diazaspiro[3.4]octan-8-yl)oxazole-4-carboxylate] | > 10 µM
26 | 1 to 10 µM | CC1(C)C[C@@H]1C(=O)N1CC2(CN(C(=O)c3cnn(Cc4ccccc4)c3)CC2c2ccc(NC(=O)C3CCCCC3)cc2)C1 (stereo partly drawn) [I-87, N-(4-(6-(1-benzyl-1H-pyrazole-4-carbonyl)-2-((S)-2,2-dimethylcyclopropane-1-carbonyl)-2,6-diazaspiro[3.4]octan-8-yl)phenyl)cyclohexanecarboxamide] | 5 to 10 µM
27 | 0.1 to 1 µM | C[C@H](NC(=O)c1coc(C2CN(C(=O)c3cnn(Cc4ccccc4)c3)CC23CN(C(=O)[C@H]2CC2(C)C)C3)n1)c1ccccc1 (some centres unmarked) [I-88] | > 10 µM
28 | 0.1 to 1 µM | C[C@H](NC(=O)c1coc(C2CN(C(=O)c3cnn(Cc4ccccc4)c3)CC23CN(C(=O)[C@H]2CC2(C)C)C3)n1)C1CCCCC1 (some centres unmarked) [I-89] | 5 to 10 µM
29 | 0.01 to 0.1 µM | C[C@@H](NC(=O)c1coc(C2CN(C(=O)c3cnn(Cc4ccccc4)c3)CC23CN(C(=O)[C@H]2CC2(C)C)C3)n1)C1CCCCC1 (some centres unmarked) [I-90] | 5 to 10 µM
30 | 0.1 to 1 µM | CC1(C)C[C@@H]1C(=O)N1CC2(CN(C(=O)c3cnn(Cc4ccccc4)c3)CC2c2nc(C(=O)NCc3ccccc3)co2)C1 (stereo partly drawn) [I-91, N-benzyl-2-(6-(1-benzyl-1H-pyrazole-4-carbonyl)-2-((S)-2,2-dimethylcyclopropane-1-carbonyl)-2,6-diazaspiro[3.4]octan-8-yl)oxazole-4-carboxamide] | > 10 µM
31 | 0.01 to 0.1 µM | CC1(C)C[C@@H]1C(=O)N1CC2(CN(C(=O)c3cnn(Cc4ccccc4)c3)CC2c2nc(C(=O)NCC3CCCCC3)co2)C1 (some centres unmarked) [I-92] | 5 to 10 µM
32 | 1 to 10 µM | CC1(C)C[C@@H]1C(=O)N1CC2(CN(C(=O)c3cnn(Cc4ccccc4)c3)CC2c2ccc(NCc3ccccc3)cc2)C1 (stereo partly drawn) [I-93, (1-benzyl-1H-pyrazol-4-yl)(8-(4-(benzylamino)phenyl)-2-((S)-2,2-dimethylcyclopropane-1-carbonyl)-2,6-diazaspiro[3.4]octan-6-yl)methanone] | 5 to 10 µM
33 | 0.01 to 0.1 µM | CC(c1nnc(C2CN(C(=O)c3cncs3)CC23CN(C(=O)[C@H]2CC2(C)C)C3)o1)n1ccc(C2CCCC2)n1 (some centres unmarked) [I-96] | > 10 µM
34 | 0.1 to 1 µM | CC(c1coc(C2CCCC2)n1)c1nc(C2CN(C(=O)c3cncs3)CC23CN(C(=O)[C@H]2CC2(C)C)C3)no1 (some centres unmarked) [I-100] | 5 to 10 µM
